Experiment [1] has as its target T1, YFP-hTRPV1-rLuc (Homo sapiens, UniProt Q8NER1).
T1 construct: expressed in transfected cells; host or cells: HEK293T
Description: Intramolecular YFP-hTRPV1-rLuc BRET probe in HEK293T cells. The class given is cell-based. The following applies: for effect on the CAPS dose response curve: cells pre-incubated with 1 μM inhibitor (FIG. 10); for effect on the capsaicin dose-response curve: pre-incubated 5 minutes before readings, 37° C. (FIG. 6). On the technique in general: In BRET a luciferase serves as donor, and the signal depends on an acceptor being close.

The target in experiment [2] is TRPV1-Luc/YFP-CaM (Homo sapiens, UniProt Q8NER1). The following applies: for effect on the CAPS dose response curve: cells pre-incubated with 1 μM inhibitor (FIG. 10).
Experiment [3] concerns the target YFP-hTRPV3-rLuc (Homo sapiens, UniProt Q8NET8). Particulars: 33° C., kinetic.
The subject of experiment [4] is HEK293T cells transfected with an empty vector. Description: Intracellular calcium by Fura 2-AM, HEK293T cells transfected with an empty vector. In kind it is cell-based, human. The following applies: 1 μM capsaicin, 37° C.
In experiment [5] the target is T1, YFP-hTRPV1-rLuc. The experiment in a line: Intracellular calcium by Fura 2-AM, HEK293T cells expressing YFP-hTRPV1-rLuc. The following applies: 1 μM capsaicin, 37° C. The class given is cell-based. In general terms: Calcium assays in cells follow changes in intracellular calcium, usually with a dye or a luminescent sensor.
The target of experiment [6] is T2, wild-type TRPV1 (Homo sapiens, UniProt Q8NER1).
T2 construct: expressed in transfected cells; host or cells: HEK293T
The experiment in a line: Intracellular calcium by Fura 2-AM, HEK293T cells expressing wild-type TRPV1. Particulars: 1 μM capsaicin, 37° C. In kind it is cell-based.

Experiment [7] deals with TRPV1-Luc (human; Renilla) (UniProt Q8NER1). The experiment in a line: intermolecular BRET kinetics in living HEK293T cells co-expressing TRPV1-Luc and YFP-CaM, after capsaicin injection.
Experiment [8] has as its target T3, TRPV4-Luc/YFP-CaM (Homo sapiens, UniProt Q9HBA0).
T3 construct: expressed in transfected cells; host or cells: HEK293T
Description: Intermolecular TRPV4-Luc/YFP-CaM BRET test in HEK293T cells. The class given is cell-based. The procedure:
An intermolecular TRPV4 BRET probe where the RLuc was fused to the TRPV4 in C-terminal and YFP was fused to the N-terminus part of Calmodulin. Kinetic (FIG. 14A) and dose response curve (FIG. 14B) of the effect of the TRPV4 agonist GSK1016790A on HEK293T cells expressing the TRPV4-Luc/YFP-CaM constructs were obtained. In FIG. 14A, cells were activated with 1 μM of agonist at the time indicated with an arrow. In FIG. 14B, the test was done in presence (square) or absence of the TRPV inhibitor Ruthenium Red (10 μM).

Where [9] appears, read: temperature rise from 25° C. to 42° C.
The mark [10] stands for this setting: HEK293T cells pre-incubated with the antagonist, heated.
The mark [11] stands for this setting: HEK293T cells pre-incubated with the antagonist.

The EC50 is the concentration giving half of the maximal effect. Read a high EC50 as lower potency in that assay.

Sequence of TRPV1-Luc/YFP-CaM (Q8NER1 whole entry): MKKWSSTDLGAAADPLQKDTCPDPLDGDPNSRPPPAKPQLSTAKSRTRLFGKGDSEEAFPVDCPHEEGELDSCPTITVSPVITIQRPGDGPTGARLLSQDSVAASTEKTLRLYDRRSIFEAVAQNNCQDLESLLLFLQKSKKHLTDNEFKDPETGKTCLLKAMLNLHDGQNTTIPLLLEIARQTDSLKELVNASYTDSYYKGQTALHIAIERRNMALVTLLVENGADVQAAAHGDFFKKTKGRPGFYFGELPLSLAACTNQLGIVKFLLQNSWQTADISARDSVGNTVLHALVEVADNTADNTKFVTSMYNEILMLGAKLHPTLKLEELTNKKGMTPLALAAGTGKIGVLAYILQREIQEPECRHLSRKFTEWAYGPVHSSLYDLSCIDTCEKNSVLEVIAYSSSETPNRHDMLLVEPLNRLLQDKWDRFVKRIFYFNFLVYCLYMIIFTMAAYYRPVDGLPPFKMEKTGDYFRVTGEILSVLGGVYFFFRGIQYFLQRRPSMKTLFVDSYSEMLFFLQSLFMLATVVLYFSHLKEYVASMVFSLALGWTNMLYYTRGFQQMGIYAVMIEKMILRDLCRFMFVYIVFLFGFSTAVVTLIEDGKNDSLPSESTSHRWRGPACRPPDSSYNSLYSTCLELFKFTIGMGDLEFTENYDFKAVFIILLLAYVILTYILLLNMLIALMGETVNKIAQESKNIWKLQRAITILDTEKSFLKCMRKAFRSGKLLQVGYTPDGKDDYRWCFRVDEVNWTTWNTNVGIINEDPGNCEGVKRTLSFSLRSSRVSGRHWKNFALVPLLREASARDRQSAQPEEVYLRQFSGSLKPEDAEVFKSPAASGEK
T1 sequence (Q8NER1 whole entry): as above
T3 sequence (Q9HBA0 whole entry): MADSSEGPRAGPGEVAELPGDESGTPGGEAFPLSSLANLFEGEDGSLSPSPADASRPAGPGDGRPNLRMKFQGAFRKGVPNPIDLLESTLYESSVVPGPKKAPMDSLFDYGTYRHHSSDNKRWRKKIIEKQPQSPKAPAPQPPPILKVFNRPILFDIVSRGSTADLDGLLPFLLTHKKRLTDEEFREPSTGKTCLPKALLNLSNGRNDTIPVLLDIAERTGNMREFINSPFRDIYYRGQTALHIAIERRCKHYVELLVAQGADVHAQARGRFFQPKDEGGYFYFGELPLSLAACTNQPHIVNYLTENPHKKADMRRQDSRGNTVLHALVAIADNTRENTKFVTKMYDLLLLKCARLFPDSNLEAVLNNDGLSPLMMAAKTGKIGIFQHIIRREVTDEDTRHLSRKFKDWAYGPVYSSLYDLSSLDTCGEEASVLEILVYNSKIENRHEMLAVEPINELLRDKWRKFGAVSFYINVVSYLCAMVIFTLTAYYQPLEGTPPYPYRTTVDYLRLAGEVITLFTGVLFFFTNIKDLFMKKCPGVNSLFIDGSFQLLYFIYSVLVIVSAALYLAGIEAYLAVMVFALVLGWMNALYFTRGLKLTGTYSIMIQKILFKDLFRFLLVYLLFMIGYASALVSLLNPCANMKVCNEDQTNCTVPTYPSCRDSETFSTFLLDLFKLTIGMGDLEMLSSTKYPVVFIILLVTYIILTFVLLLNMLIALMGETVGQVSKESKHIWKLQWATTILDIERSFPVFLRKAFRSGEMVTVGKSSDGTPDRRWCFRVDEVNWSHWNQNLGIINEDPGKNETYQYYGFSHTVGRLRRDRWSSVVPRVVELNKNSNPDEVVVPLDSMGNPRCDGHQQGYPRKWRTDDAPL
Sequence of YFP-hTRPV3-rLuc (Q8NET8 whole entry): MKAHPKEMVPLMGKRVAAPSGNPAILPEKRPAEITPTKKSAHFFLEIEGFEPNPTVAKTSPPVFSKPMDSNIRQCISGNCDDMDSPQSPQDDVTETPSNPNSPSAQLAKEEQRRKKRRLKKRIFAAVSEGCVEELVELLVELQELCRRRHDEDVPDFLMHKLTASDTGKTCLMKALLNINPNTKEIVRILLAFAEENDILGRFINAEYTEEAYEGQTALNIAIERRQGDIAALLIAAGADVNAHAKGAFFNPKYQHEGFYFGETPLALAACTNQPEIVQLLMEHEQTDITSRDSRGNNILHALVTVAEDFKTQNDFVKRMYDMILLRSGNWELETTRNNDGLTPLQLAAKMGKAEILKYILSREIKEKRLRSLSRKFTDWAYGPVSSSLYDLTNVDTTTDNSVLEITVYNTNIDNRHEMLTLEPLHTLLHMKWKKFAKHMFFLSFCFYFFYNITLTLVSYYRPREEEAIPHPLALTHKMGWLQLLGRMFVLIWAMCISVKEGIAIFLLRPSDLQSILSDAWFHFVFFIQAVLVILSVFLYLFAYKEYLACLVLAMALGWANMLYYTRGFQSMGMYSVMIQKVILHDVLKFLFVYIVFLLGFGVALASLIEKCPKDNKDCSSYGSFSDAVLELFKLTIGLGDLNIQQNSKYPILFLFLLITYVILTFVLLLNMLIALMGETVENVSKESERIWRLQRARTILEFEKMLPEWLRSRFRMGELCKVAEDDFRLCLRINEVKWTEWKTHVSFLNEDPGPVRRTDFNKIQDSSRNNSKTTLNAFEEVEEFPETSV
Sequence of TRPV1-Luc (human; Renilla) (Q8NER1 whole entry): as the sequence (Q8NER1 whole entry) above
T2 sequence (Q8NER1 whole entry): as above

As for `CC(=O)Nc1nc2c(Oc3cc(-c4ccc(C(F)(F)F)cc4)ncn3)cccc2s1` [AMG517], the “effect on the CAPS dose response curve” value in experiment [1] and in experiment [2] was “right shift” each time. Moreover, in experiment [1], the “effect on the capsaicin dose-response curve” value is given as “right-shift”. In experiment [2] (cells preincubated with inhibitor, temperature increased from 25° C. to 50° C.), the “temperature-induced BRET increase” value is reported as “no significant BRET increase”.
Regarding `NCCOB(c1ccccc1)c1ccccc1` [2-APB, 2-Aminoethyl diphenylborinate], in experiment [3], the “evolution of the BRET signal after addition to the culture media” value was “increase in the BRET value within seconds”.
Take `COc1cc(CNC(=O)CCCC/C=C/C(C)C)ccc1O` [capsaicin]: the “time constant (Tau) of BRET increase” value in experiment [1] (after CAPS injection) was found to be 2 s; in experiment [2] (after CAPS injection) it was 27 s. Further, the “BRET over the basal signal following exposure” value is “robust increase of BRET” in experiment [1] (kinetic, HEK293T cells) and “robust increase of BRET” in experiment [2] (kinetic, HEK293T cells). For the same compound, the “effect of temperature rise on capsaicin dose response” value in experiment [1] (setting [9]) and in experiment [2] (setting [9]) was “leftward shift of the power of capsaicin while the efficacy remained unchanged” in each case. The “intracellular calcium (Fura 2, I340/I380)” value in experiment [4] was “No calcium increase”; in experiment [5], “rapid and important increase of intracellular calcium”; in experiment [6], “rapid and important increase of intracellular calcium”.
Take YFP-CaM (from UniProt P0DP23 1-149): the time constant of the BRET increase after capsaicin in experiment [7] came out at 27 s.
`Oc1cc2c(cc1O)CN(C(=S)NCCc1ccc(Cl)cc1)CCC2` [Capsazepine]: the “temperature where BRET signal started to decrease” value in experiment [1] (1 μM CPZ, medium heated from 25° C. to 50° C.) turned out to be 47 °C. Moreover, the “effect on the CAPS dose response curve” value in experiment [1] and in experiment [2] was “right shift” in each case. The “effect on the capsaicin dose-response curve” value in experiment [1] is reported as “right-shift”.
Turning to `N.N.N.N.N.N.N.N.N.N.N.N.N.N.[Cl-].[Cl-].[Cl-].[Cl-].[Cl-].[Cl-].[O-2].[O-2].[Ru+3].[Ru+3].[Ru+4]` [Ruthenium Red], the “BRET increase induced by the TRPV4 agonist GSK1016790A” value in experiment [8] (Ruthenium Red 10 μM) is on record as “No BRET increase”.
`CC(C)C[C@H](NC(=O)c1cc2ccccc2s1)C(=O)N1CCN(C(=O)[C@H](CO)NS(=O)(=O)c2ccc(Cl)cc2Cl)CC1` [GSK1016790A] gave an EC50 in experiment [8] (control condition (absence of Ruthenium Red), log value) of 12.9 µM.
Consider `c1ccc(C2(c3ccccc3)CCCO2)cc1` [2,2-Diphenyltetrahydrofuran], for which the “temperature at which BRET signal plateaued” value in experiment [1] (setting [10]) turned out to be 52 °C. Besides, in experiment [1] (setting [11]), the “ratio of net BRET as initially measured at 29.5° C.” value is recorded as 0.93.
Take `CCCCCCCCC(=O)NCc1cc(OC)c(O)cc1I` [6 iodo-CAPS]: the “temperature from which BRET signal decreased” value in experiment [1] (setting [10]) was found to be 48 °C. In experiment [1] (setting [11]), the “ratio of net BRET as initially measured at 29.5° C.” value worked out at 0.28.

Values taken from US20180030108A1, “NOVEL VOLTAGE-DEPENDENT ION CHANNEL FUSIONS AND METHOD OF USE THEREOF” (UNIVERSITE DE BORDEAUX, priority 2015, published 2018).
